Data published in patent US11807640B1 (priority 2023, dated 2023).
In brackets after ≈: the same amount, converted by molar mass.

How the values were obtained:
[1] = system: XDR-MTB (Extensively drug-resistant Mycobacterium tuberculosis); assay: microbe, parasite or virus in culture; format: cell-based; conditions: 192 h, read-out: MIC (μg/mL) XDR-MTB
[2] = system: MDR-MTB (Multidrug-resistant Mycobacterium tuberculosis); assay: microbe, parasite or virus in culture; format: cell-based; conditions: 192 h, read-out: MIC (μg/mL) MDR-MTB

Row | Compound | MIC [1] [µg/mL] | MIC [2] [µg/mL]
1 | CCOC(=O)c1cc(C(=O)c2ccc(F)cc2)n2ccc(C(=O)OC(C)C)cc12 [KNV-4, 1-Ethyl 7-isopropyl 3-(4-fluorobenzoyl)indolizine-1,7-dicarboxylate] | 32 (≈ 80.5 µM) | 4 (≈ 10.1 µM)
2 | COC(=O)c1c(C(=O)OC)c2cc(C(=O)OC(C)C)ccn2c1C(=O)c1ccc(Br)cc1 [KNV-7, 7-Isopropyl 1,2-dimethyl 3-(4-bromobenzoyl)indolizine-1,2,7-tricarboxylate] | 8 (≈ 15.9 µM) | 8 (≈ 15.9 µM)
